Reference: US20170121322A1, “BET-PROTEIN INHIBITING 3,4-DIHYDROPYRIDO[2,3-B]PYRAZINONES WITH META-SUBSTITUTED AROMATIC AMINO- OR ETHER GROUPS” (Bayer Pharma Aktiengesellschaft, priority 2014, published 2017)

How the values were obtained:
[1] = biological target: T1, BRD4 bromo domain 1 [BRD4(1)] (Homo sapiens, UniProt O60885); assay: BRD4(1)/acetylated peptide H4 TR-FRET binding assay; conditions: His6-BRD4(1) (aa 67-152) vs acetylated histone H4 peptide
T1 construct: N-terminally His6-tagged BRD4(1) (amino acids 67-152); made in house; host or cells: E. coli
Text: To assess the BRD4(1) binding strength of the substances described in this application, the ability thereof to inhibit the interaction between BRD4(1) and acetylated histone H4 in a dose-dependent manner was quantified.
(§1) For this purpose, a time-resolved fluorescence resonance energy transfer (TR-FRET) assay was used, which measures the binding between N-terminally His6-tagged BRD4(1) (amino acids 67-152) and a synthetic acetylated histone H4 (Ac-H4) peptide with sequence GRGK(Ac)GGK(Ac)GLGK(Ac)GGAK(Ac)RHGSGSK-biotin. The recombinant BRD4(1) protein produced in-house according to Filippakopoulos et al., Cell, 2012, 149:214-231 was expressed in E. coli and purified by means of (Ni-NTA) affinity and (Sephadex G-75) size exclusion chromatography. The Ac-H4 peptide can be purchased, for example, from Biosyntan (Berlin, Germany).
(§2) In the assay, typically 11 different concentrations of each substance (0.1 nM, 0.33 nM, 1.1 nM, 3.8 nM, 13 nM, 44 nM, 0.15 μM, 0.51 μM, 1.7 μM, 5.9 μM and 20 μM) were analysed as duplicates on the same microtitre plate. For this purpose, 100-fold concentrated solutions in DMSO were prepared by serial dilutions (1:3.4) of a 2 mM stock solution into a clear, 384-well microtitre plate (Greiner Bio-One, Frickenhausen, Germany). From this, 50 nl were transferred into a black test plate (Greiner Bio-One, Frickenhausen, Germany). The test was started by the addition of 2 μl of a 2.5-fold concentrated BRD4(1) solution (final concentration typically 10 nM in the 5 μl of reaction volume) in aqueous assay buffer [50 mM HEPES pH 7.5, 50 mM sodium chloride (NaCl), 0.25 mM CHAPS and 0.05% serum albumin (BSA)] to the substances in the test plate. This was followed by a 10-minute incubation step at 22° C. for the pre-equilibration of putative complexes between BRD4(1) and the substances. Subsequently, 3 μl of a solution of 1.67 times the concentration (in assay buffer) consisting of Ac-H4 peptide (83.5 nM) and TR-FRET detection reagents [16.7 nM anti-6His-XL665 and 3.34 nM streptavidin cryptate (both from Cisbio Bioassays, Codolet, France), and 668 mM potassium fluoride (KF)] were added.
(§3) The mixture was then incubated in the dark at 22° C. for one hour and then at 4° C. for at least 3 hours and for no longer than overnight. The formation of BRD4(1)/Ac-H4 complexes was determined by the measurement of the resonance energy transfer from the streptavidin-Eu cryptate to the anti-6His-XL665 antibody present in the reaction. For this purpose, the fluorescence emission was measured at 620 nm and 665 nm after excitation at 330-350 nm in a TR-FRET measuring instrument, for example a Rubystar or Pherastar (both from BMG Lab Technologies, Offenburg, Germany) or a Viewlux (Perkin-Elmer). The ratio of the emissions at 665 nm and at 622 nm was taken as an indicator of the amount of BRD4(1)/Ac-H4 complexes formed.
(§4) The data (ratios) obtained were normalized, with 0% inhibition corresponding to the mean from the measurements for a set of controls (typically 32 data points) in which all the reagents were present. In these, in place of test substances, 50 nl of DMSO (100%) were used. Inhibition of 100% corresponded to the mean from the measurements for a set of controls (typically 32 data points) in which all the reagents except BRD4(1) were present. The IC50 was determined by regression analysis based on a 4-parameter equation (minimum, maximum, IC50, Hill; Y=Max+(Min−Max)/(1+(X/IC50)Hill).

[2] = biological target: T2, BRD4 bromo domain 2 [BRD4(2)] (Homo sapiens, UniProt O60885); assay: BRD4(2)/acetylated peptide H4 TR-FRET binding assay; conditions: His6-BRD4(2) (aa 357-445) vs acetylated histone H4 peptide
T2 construct: N-terminally His6-tagged BRD4(2) (amino acids 357-445); made in house; host or cells: E. coli
Text: To assess the BRD4(2) binding strength of the substances described in this application, the ability thereof to inhibit the interaction between BRD4(2) and acetylated histone H4 in a dose-dependent manner was quantified.
as §1, with “BRD4(2)” for “BRD4(1)”, “357-445)” for “67-152)”, “SGRGK(Ac)GGK(Ac)GLGK(Ac)GGAK(Ac)RHRKVLRDNGSGSK-biotin.” for “GRGK(Ac)GGK(Ac)GLGK(Ac)GGAK(Ac)RHGSGSK-biotin.”
as §2, with “concentrated BRD4(2)” for “concentrated BRD4(1)”, “typically 100” for “typically 10”, “chloride (NaCl); 50 mM potassium fluoride (KF);” for “chloride (NaCl),”, “between BRD4(2)” for “between BRD4(1)”, “substances.” for “substances. Subsequently, 3 μl of a solution of 1.67 times the concentration (in assay buffer) consisting of Ac-H4 peptide (83.5 nM) and TR-FRET detection reagents [16.7 nM anti-6His-XL665 and 3.34 nM streptavidin cryptate (both from Cisbio Bioassays, Codolet, France), and 668 mM potassium fluoride (KF)] were added.”
as §3, with “BRD4(2)/Ac-H4” for “BRD4(1)/Ac-H4”, “chelate” for “cryptate”
as §4, with “BRD4(2)” for “BRD4(1)”, “Y=Max+(Min−Max)/(1+(X/IC50)Hill)).” for “Y=Max+(Min−Max)/(1+(X/IC50)Hill).”

[3] = system: MOLM-13 cells; assay: Cell proliferation assay MOLM-13, method 2 (CellTiterGlo); type: cell-based; conditions: Homo sapiens, MOLM-13, 72 h; acute myeloid leukaemia cells, 500 cells/well, 1536-well, 3-day incubation, CellTiterGlo ATP readout
Procedure: Alternatively, the MOLM-13 cells (DSMZ, ACC 554) were seeded at a concentration of 500 cells/well in 5 μl of growth medium (RPMI1640, 10% FCS) on 1536-well microtitre plates (method 2).
In method 2, after 3-day incubation with the inhibitor, the ATP concentration was determined as readout for the cell number using the CellTiterGlo kit (Promega). The measurement was carried out using a luminometer.
The substances were tested in the cell lines in Table 2, which represent the indications specified by way of example: […]

SMILES | IC50 [1] | IC50 [2] | IC50 [3]
CCS(=O)(=O)c1ccc(Oc2ccccc2)c(Nc2ccc3c(n2)N(C2CCN(C)CC2)[C@H](C)C(=O)N3C)c1 [Example 33, (3R)-6-{[5-(Ethylsulphonyl)-2-phenoxyphenyl]amino}-1,3-dimethyl-4-(1-methylpiperidin-4-yl)-3,4-dihydropyrido[2,3-b]pyrazin-2(1H)-one] | 15 nM | 51 nM | 26 nM
CCS(=O)(=O)c1ccc(Oc2ccc(F)cc2)c(Nc2ccc3c(n2)N(C2CCN(C)CC2)[C@H](C)C(=O)N3C)c1 [Example 32, (3R)-6-{[5-(Ethylsulphonyl)-2-(4-fluorophenoxy)phenyl]amino}-1,3-dimethyl-4-(1-methylpiperidin-4-yl)-3,4-dihydropyrido[2,3-b]pyrazin-2(1H)-one] | 945 nM | 29 nM | 40 nM
CCS(=O)(=O)c1ccc(Oc2ccc(F)cc2)c(Nc2ccc3c(n2)N(C2CCOCC2)[C@H](C)C(=O)N3C)c1 [Example 37, (3R)-6-{[5-(Ethylsulphonyl)-2-(4-fluorophenoxy)phenyl]amino}-1,3-dimethyl-4-(tetrahydro-2H-pyran-4-yl)-3,4-dihydropyrido[2,3-b]pyrazin-2(1H)-one] | 35 nM | 39 nM | 124 nM
CC(C)S(=O)(=O)c1cccc(Nc2ccc3c(n2)N(C2CCN(CCC(F)(F)F)CC2)[C@H](C)C(=O)N3C)c1 [Example 30, (3R)-6-{[3-(Isopropylsulphonyl)phenyl]amino}-1,3-dimethyl-4-[1-(3,3,3-trifluoropropyl)piperidin-4-yl]-3,4-dihydropyrido[2,3-b]pyrazin-2(1H)-one] | 20 nM | 114 nM | 73 nM
C[C@@H]1C(=O)N(C)c2ccc(Nc3cccc(-c4ccc(C#N)cc4)c3)nc2N1C1CCOCC1 [Example 18, 3′-{[(3R)-1,3-Dimethyl-2-oxo-4-(tetrahydro-2H-pyran-4-yl)-1,2,3,4-tetrahydropyrido[2,3-b]pyrazin-6-yl]amino}biphenyl-4-carbonitrile] | 1100 nM | 294 nM | 1650 nM
CCS(=O)(=O)c1ccc(Oc2ccccc2)c(Nc2ccc3c(n2)N(C2CCOCC2)[C@H](C)C(=O)N3C)c1 [Example 36, (3R)-6-{[5-(Ethylsulphonyl)-2-phenoxyphenyl]amino}-1,3-dimethyl-4-(tetrahydro-2H-pyran-4-yl)-3,4-dihydropyrido[2,3-b]pyrazin-2(1H)-one] | 34 nM | 49 nM | 160 nM
COc1ccc(S(=O)(=O)C(C)C)cc1Nc1ccc2c(n1)N(C1CCN(C(=O)OC(C)(C)C)CC1)[C@H](C)C(=O)N2C [Example 24, tert-Butyl 4-[(3R)-6-{[5-(isopropylsulphonyl)-2-methoxyphenyl]amino}-1,3-dimethyl-2-oxo-2,3-dihydropyrido[2,3-b]pyrazin-4(1H)-yl]piperidine-1-carboxylate] | 86 nM | 78 nM | 147 nM
C=CCS(=O)(=O)c1ccc(OC)c(Nc2ccc3c(n2)N(C2CCN(C)CC2)[C@H](C)C(=O)N3C)c1 [Example 23, (3R)-6-{[5-(Allylsulphonyl)-2-methoxyphenyl]amino}-1,3-dimethyl-4-(1-methylpiperidin-4-yl)-3,4-dihydropyrido[2,3-b]pyrazin-2(1H)-one] | 27 nM | 64 nM | 51 nM
C[C@@H]1C(=O)N(C)c2ccc(Nc3cccc(N4CCN(C)CC4)c3)nc2N1C1CCOCC1 [Example 41, (3R)-1,3-Dimethyl-6-{[3-(4-methylpiperazin-1-yl)phenyl]amino}-4-(tetrahydro-2H-pyran-4-yl)-3,4-dihydropyrido[2,3-b]pyrazin-2(1H)-one] | 133 nM | 630 nM | 708 nM
C[C@@H]1C(=O)N(C)c2ccc(Nc3cccc(S(C)(=N)=O)c3)nc2N1C1CCOCC1 (stereo partly drawn) [Example 44, (3R)-1,3-Dimethyl-6-{[3-(S-methylsulphonimidoyl)phenyl]amino}-4-(tetrahydro-2H-pyran-4-yl)-3,4-dihydropyrido[2,3-b]pyrazin-2(1H)-one] | 3640 nM | 7340 nM | > 10000 nM
COc1ccc(S(C)(=O)=O)cc1Nc1ccc2c(n1)N(C1CCN(C(=O)OC(C)(C)C)CC1)[C@H](C)C(=O)N2C [Example 25, tert-Butyl 4-[(3R)-6-{[2-methoxy-5-(methylsulphonyl)phenyl]amino}-1,3-dimethyl-2-oxo-2,3-dihydropyrido[2,3-b]pyrazin-4(1H)-yl]piperidine-1-carboxylate] | 156 nM | 135 nM | 576 nM
